# “And” between values parts separate entries of the source, which are not always exact repeats. Equal entries are not always repeated.
# Experiments:
# [1] = Hygroscopicity by Dynamic Vapor Sorption (DVS); format: physicochemical; details: based on water vapour uptake at 25° C./80% RH
# Experimental: The hygroscopic behaviour of the salts was evaluated through Dynamic Vapor Sorption (DVS) measurements with an RH profile 40-95-0-40% at 25° C. and a dm/dt of 0.002. The classification of the hygroscopic behaviour is based on the water vapour uptake at 25° C./80% RH in first adsorption cycle of sorption isotherm.
# [2] = Physical stability under Accelerated Aging Conditions (AAC, 40° C./75% RH, 2 days), HT-XRPD
# [3] = Kinetic and thermodynamic solubility in water at 37° C. (1 h and 18 h, UPLC)
# [4] = Intrinsic dissolution rate (rotating disc, μDiss) in water and FaSSIF; format: physicochemical; details: for IDR (mg/cm^2/min) Individual: single disc
# Experimental: Rotating disc intrinsic dissolution determinations were performed with a μDiss apparatus (Pion, USA) equipped with 6 independent glass fiber probes each connected to a diode area. Before the start of the experiment the probes were calibrated using the spectrum of a Mercury 362 nm pen-ray lamp. Discs were prepared in a passivated aluminum dye with a mini-IDR press (Heath Scientific, UK).
# Six dilutions of benzamil lactate salt were prepared in the dissolution media in the range from 0 to 0.5 mg/mL, and the solutions were stirred with a cross-shaped magnetic stirrer. These dilutions were used for the calibration curve which is used for the calculation of the amount of benzamil in solution. Moreover, the solutions were used to select the wavelength at which the samples were to be measured and to select the proper path length.
# The dyes were placed in their Teflon holder magnet stirrer and placed into 20 mL glass vials. Before to the sample measurement, a blank of each media was taken in the respective channel. The experiment started by the gentle addition of the pre-warmed dissolution media. Vials were incubated at 37° C. under continuous stirring at 100 rpm for a maximum of 4 h. UV absorption was measured with the in-line probes at regular intervals. Upon completion of the experiment the pH of the solution was determined. Concentrations of API in solution were calculated with use of the calibration curve and plotted against time. Dissolution rates were calculated over the linear parts of the curves. All dissolution rate experiments were done in triplicate except for TFA1 which were done in duplicate due to the lack of material.
# [5] = Polymorphism: solid forms found in salt screen by HT-XRPD; format: physicochemical; details: Example 1 salt screen in MeOH, DME, THF
# Experimental: The precipitated solids were analyzed by high throughput X-ray powder diffractometry (HT XRPD). Liquid phases (both solutions and mother liquors) were evaporated at ambient conditions and the residual solids were analyzed by HT XRPD.
# The salt screen experiments were carried out in methanol (MeOH), 1,2-dimethoxyethane (DME) and tetrahydrofuran (THF).
# [6] = Polymorphic landscape by thermocycling of amorphous salt in 15 solvents; format: physicochemical; details: for polymorphs found: Example 3, thermocycling from amorphous salt, 15 solvents; for HT-XRPD Vac.: vacuum-dried solid; for HT-XRPD Vac. (AAC): vacuum-dried solid after AAC 48 h; for HT-XRPD Evap.: evaporated liquid; for HT-XRPD Evap. (AAC): evaporated liquid after AAC 48 h
# [7] = Aqueous solubility of salts, Example 1 (aliquot addition; HPLC after 24 h at RT; pH of solutions/mother liquors); details: Example 1; RT; aliquot addition (ranges) or HPLC after 24 h, not in Table 3
# Experimental: The aqueous solubility of the salts was estimated qualitatively by the solvent aliquot addition method. Aliquots of water up to 500-600 μL were added to approximately 5 mg of salt. The solubility of the free base was also estimated.
# The suspensions were let equilibrating at room temperature for 24 h. Afterwards, solids were separated from the liquid phases. The liquid phases were filtered and analyzed by HPLC to determine the solubility. The pH of solutions/mother liquors was also measured.
# Suspensions of the two salts were prepared in water with a concentration of 9-10 mg/mL. The mixtures were let equilibrating at RT for 24 h. Afterwards, solids were separated from the liquid phases. The liquid phases were filtered and analyzed by HPLC to determine the solubility. The pH of mother liquors was also measured.
# [8] = Physio-chemical stability study, open container 25° C./60% RH and 40° C./75% RH (UPLC, TGMS, HT-XRPD); format: physicochemical; details: for UPLC 1 week / UPLC 3 weeks / UPLC 3 days: chemical purity
# Experimental: Open container at 25° C. and 60% RH • 2. Open container at 40° C. and 75% RH
# [9] = water, 37° C., 30 mg/ml suspension
# [10] = thermocycling in Acetone/water (95/5% v/v)
# [11] = thermocycling in EtOH/water (95/5% v/v)
# [12] = thermocycling in IPA/water (95/5% v/v)
# [13] = open container 25° C. and 60% RH
# [14] = open container 40° C. and 75% RH
smiles,measurement,setting,value
CC(O)C(=O)O.NC(=NCc1ccccc1)NC(=O)c1nc(Cl)c(N)nc1N [LAC1],classification of hygroscopic behaviour,[1],slightly hygroscopic
same,Physically stable?,"[2]; AAC, 2 days at 40° C. and 75% RH, solids from thermocycling",Yes
same,Physically stable after AAC,"[2]; Example 1, 40° C./75% RH for 2 days",physically stable and Yes
same,physical stability upon exposure to AAC,"[2]; Example 3 thermocycling solids, 2 days at 40° C. and 75% RH",physically stable
same,solubility compared with the TFA salts,[3]; overall conclusion of Example 3,significantly higher solubility
same,XRPD 1 h Amb.,"[3]; residual solid after 1 h in water at 37° C., ambient-dried",LAC1
same,XRPD 1 h Vac.,"[3]; residual solid after 1 h in water at 37° C., vacuum-dried",LAC1
same,XRPD 18 h Amb.,"[3]; residual solid after 18 h in water at 37° C., ambient-dried",Am
same,XRPD 18 h Vac.,"[3]; residual solid after 18 h in water at 37° C., vacuum-dried",LAC1
same,pH after 10 min,[3]; [9],5.9
same,pH after 1 h,[3]; [9],5.8
same,pH after 18 h,[3]; [9],5.8
same,Solubility (mg/mL) 1 h,"[3]; water, 37° C., 1 h (kinetic), UPLC",24.3 mg/mL
same,Solubility (mg/mL) 18 h,"[3]; water, 37° C., 18 h (thermodynamic), UPLC",23.6 mg/mL
same,dissolution rate compared with TFA2 and TFA1,[4],significantly faster
same,IDR (mg/cm^2/min) Average,"[4]; FaSSIF, 37° C., 100 rpm",0.39 ± 0.11 mg/cm^2/min
same,IDR (mg/cm^2/min) Individual,"[4]; FaSSIF, 37° C., 100 rpm",0.285 mg/cm^2/min and 0.510 mg/cm^2/min and 0.389 mg/cm^2/min
same,IDR (mg/cm^2/min) Average,"[4]; Water, 37° C., 100 rpm",1.87 ± 0.06 mg/cm^2/min
same,IDR (mg/cm^2/min) Individual,"[4]; Water, 37° C., 100 rpm",1.870 mg/cm^2/min and 1.811 mg/cm^2/min and 1.933 mg/cm^2/min
same,time until the whole tablet has been dissolved,"[4]; water, 37° C.",about 50 min
same,Intrinsic Dissolution Rate (IDR),"[4]; water, 37° C., 100 rpm, linear part (LAC1 1 to 36 min; TFA 10-100 min)",1.87±0.06 mg/cm^2/min
same,Polymorphism,[5],No
same,Polymorphism,[5]; listed as lactate salt,Only one polymorph
same,polymorphs found,[6]; listed as benzamil lactate salt,not to be polymorphic
same,polymorphs found,[6]; listed as lactate salt,Only one polymorph
same,HT-XRPD Vac.,"[6]; thermocycling in 1,4-Dioxane",LAC1
same,HT-XRPD Vac. (AAC),"[6]; thermocycling in 1,4-Dioxane",LAC1
same,HT-XRPD Vac.,[6]; thermocycling in ACN,LAC1
same,HT-XRPD Vac. (AAC),[6]; thermocycling in ACN,LAC1
same,HT-XRPD Vac.,[6]; thermocycling in Acetone,LAC1
same,HT-XRPD Vac. (AAC),[6]; thermocycling in Acetone,LAC1
same,HT-XRPD Vac.,[6]; [10],LAC1
same,HT-XRPD Vac. (AAC),[6]; [10],LAC1
same,HT-XRPD Vac.,[6]; thermocycling in DME,LAC1
same,HT-XRPD Vac. (AAC),[6]; thermocycling in DME,LAC1
same,HT-XRPD Vac.,[6]; thermocycling in EtOAc,LAC1
same,HT-XRPD Vac. (AAC),[6]; thermocycling in EtOAc,LAC1
same,HT-XRPD Vac.,[6]; thermocycling in EtOH,LAC1
same,HT-XRPD Vac. (AAC),[6]; thermocycling in EtOH,LAC1
same,HT-XRPD Evap.,[6]; [11],LAC1
same,HT-XRPD Evap. (AAC),[6]; [11],LAC1
same,HT-XRPD Vac.,[6]; [11],LAC1
same,HT-XRPD Vac. (AAC),[6]; [11],LAC1
same,HT-XRPD Vac.,[6]; thermocycling in IPA,LAC1
same,HT-XRPD Vac. (AAC),[6]; thermocycling in IPA,LAC1
same,HT-XRPD Vac.,[6]; [12],LAC1
same,HT-XRPD Vac. (AAC),[6]; [12],LAC1
same,HT-XRPD Vac.,[6]; thermocycling in MEK,LAC1
same,HT-XRPD Vac. (AAC),[6]; thermocycling in MEK,LAC1
same,HT-XRPD Evap.,[6]; thermocycling in MeOH,Oil
same,HT-XRPD Evap. (AAC),[6]; thermocycling in MeOH,Oil
same,HT-XRPD Vac.,[6]; thermocycling in TBME,LAC1
same,HT-XRPD Vac. (AAC),[6]; thermocycling in TBME,LAC1
same,HT-XRPD Vac.,[6]; thermocycling in THF,LAC1
same,HT-XRPD Vac. (AAC),[6]; thermocycling in THF,LAC1
same,HT-XRPD Evap.,[6]; thermocycling in Water,LAC1
same,HT-XRPD Evap. (AAC),[6]; thermocycling in Water,LAC1
same,HT-XRPD Vac.,[6]; thermocycling in Water,ly
same,HT-XRPD Vac. (AAC),[6]; thermocycling in Water,ly
same,Water solubility,[7],26 to 51 mg/mL
same,UPLC t0,[8]; chemical purity at start of stability study,99.4%
same,UPLC 1 week,[8]; [13],99.4%
same,UPLC 3 weeks,[8]; [13],99.4%
same,UPLC 3 days,[8]; [13],99.4%
same,UPLC 1 week,[8]; [14],99.2%
same,UPLC 3 weeks,[8]; [14],99.4%
same,UPLC 3 days,[8]; [14],99.4%
same,physical and chemical stability,[8]; incubation for 3 weeks at 25° C./60% RH and 40° C./75% RH,physically and chemically stable
same,TGMS 1 week,[8]; [13],<0.1% water
same,XRPD 1 week,[8]; [13],LAC1
same,TGMS 3 weeks,[8]; [13],<0.1% water
same,XRPD 3 weeks,[8]; [13],LAC1
same,TGMS 3 days,[8]; [13],1.2% water
same,XRPD 3 days,[8]; [13],LAC1
same,TGMS 1 week,[8]; [14],0.2% water
same,XRPD 1 week,[8]; [14],LAC1
same,TGMS 3 weeks,[8]; [14],<0.1% water
same,XRPD 3 weeks,[8]; [14],LAC1
same,TGMS 3 days,[8]; [14],1.5% water
same,XRPD 3 days,[8]; [14],LAC1
same,TGMS t0,[8]; start of stability study,0.4% water
same,XRPD t0,[8]; start of stability study,LAC1
